# Assay results reported in patent US5567707A, “Acronycine analogues” (Adir et Compagnie, priority 1994, dated 1996).
# Where two headings read alike, the source gives them in different places.
# Columns and labels:
# [1] = cited from earlier work
# [2] = J. H. Scarffe et al.; cited from earlier work
# colon 38 = experiment: Anti-tumour activity in vivo against colon 38; design: species or system B6D2F1 mice; settings: for median T/C % (tumour volume on D21): D2,9, i.p.
# Description: (§1) In this Example, the compounds were suspended in Tween 80, then diluted with water. The concentration of Tween is at a maximum of 1% at the strongest doses. The control animals received the carrier only.
# Colon 38 (supplied by NCI, Frederick, U.S.A.) was inserted in the form of fragments by the subcutaneous route (s.c.) into female B6D2F1 mice. The compounds were administered by the i.p. route on D2 and D9 and the anti-tumour activity was determined on D21 by measuring the rumour volume (T/C volume, %). [formula]
# P388 (murine leukaemia) = experiment: Anti-tumour activity in vivo against line P388; design: species or system murine; B6D2F1 mice
# Description: as §1
# Line P388 (murine leukaemia) was supplied by the National Cancer Institute (Frederick, U.S.A.). The tumour cells (10^6 cells) were inoculated on day 0 into the peritoneal cavity of female B6D2F1 mice (Iffa-Credo, France). Eight to ten mice, of a weight ranging from 18 to 20 g, were used for each experimental group. The compounds were administered via the intraperitoneal route on day 1 or once a day for 4 days (D1-4), and by the intravenous route on day 1.
# The anti-tumour activity is expressed as a T/C %: [formula]
# Table 2 indicates the anti-tumour activity achieved at the optimum doses for each scheme and administration route.
# experimental models = settings: especially against solid tumours, G. H. Svoboda et al.; cited from earlier work
# [3] = background statement; prevented i.v. administration; cited from earlier work
# Solubility = assay type: physicochemical; settings: prevents i.v. testing
# murine leukaemia L1210 = experiment: Cytotoxicity for L1210 cells in culture (Microculture Tetrazolium Assay); assay type: cell-based; settings: Mus musculus, four doubling periods (48 hours)
# Description: A cell line, murine leukaemia L1210, was used. The cells are cultivated in a complete culture medium RPMI 1640, containing 10% foetal calf serum, 2 mM glutamine, 50 units/ml penicillin, […] streptomycin and 10 mM Hepes, pH: 7.4. The cells are distributed on microplates and exposed to the cytotoxic compounds for four doubling periods, that is 48 hours. The number of viable cells is then quantified by a colorimetric assay, the Microculture Tetrazolium Assay (J. Carmichael et al., Cancer Res., 47, 936-942, (1987)). The results are expressed as IC50, the concentration of cytotoxic agent that inhibits the proliferation of treated cells by 50%.
# [4] = tested on: HT-29 tumour cells (human colon adenocarcinoma); experiment: HT-29 xenograft in hairless mice; assay type: in vivo, human tumour in hairless mice
# Description: as §1
# HT-29 tumour cells originating from a human colon adenocarcinoma (American Type Culture Collection, U.S.A.) are inoculated by the subcutaneous route into hairless female mice (Iffa Credo, France). The tumour is then amplified by successive passages of tumour fragments of 2-3 mm^3 implanted bilaterally by the subcutaneous route in the animals' flanks. […] The animals are weighed and their tumour is measured twice a week.
# The tumour volume is calculated in accordance with the following formula: [formula]
# The results are expressed as the median relative tumour volume: [formula]
# The anti-tumour activity of the compound administered is evaluated by the minimum value of the median T/C calculated at time t: [formula]
# The minimum value of this parameter is evaluated a minimum of 7 days after the last treatment in accordance with EORTC (European Organization for the […]) standards.
# (§2) The animals are treated by the i.p. route by weekly administration for 2 weeks of the compound of Example 1. D0 corresponds to the first time the tumours are measured and the first administration of compound.
# [5] = Body weight change of hairless mice bearing HT-29 xenograft; assay type: in vivo; settings: 6.25 mg/kg, D0,7, i.p.
# Description: HT-29 tumour cells originating from a human colon adenocarcinoma (American Type Culture Collection, U.S.A.) are inoculated by the subcutaneous route into hairless female mice (Iffa Credo, France). The tumour is then amplified by successive passages of tumour fragments of 2-3 mm^3 implanted bilaterally by the subcutaneous route in the animals' flanks. When the tumour has reached a size of 50 mm^3 (that is between 7 and 10 days after the graft), the animals are randomised into groups of 7 to 10 mice and treated in accordance with the protocol indicated. The animals are weighed and their tumour is measured twice a week.
# as §2
structure (smiles),measurement,setting,value
COc1cc2c(c3c1c(=O)c1ccccc1n3C)C=CC(C)(C)O2 [acronycine],oral bioavailability (in words),[1],poor bioavailability
same,clinical response,[2],little response
same,median T/C % (tumour volume on D21),colon 38; 100 mg/kg,77%
same,median T/C % (tumour volume on D21),colon 38; 200 mg/kg,61%
same,T/C % (survival),"P388 (murine leukaemia); D1, i.p., optimum dose 200 mg/kg",125%
same,T/C % (survival),"P388 (murine leukaemia); D1-4, i.p., optimum dose 100 mg/kg",136%
same,activity against P388 (in words),"P388 (murine leukaemia); i.p. route, at far stronger doses",weak activity
same,anti-tumour spectrum (in words),experimental models,broad spectrum of activity
same,solubility (in words),[3],insolubility
same,solubility (in words),Solubility,completely insoluble
same,IC50,murine leukaemia L1210,27 µM
"COc1cc2c(c3c1c(=O)c1ccccc1n3C)[C@H]1OC(=O)O[C@H]1C(C)(C)O2 (relative stereo) [Example 7, (±)-cis-1,2-carbonyldioxy-1,2-dihydro-acronycine]",T/C % (survival),"P388 (murine leukaemia); D1, i.p., optimum dose 50 mg/kg",269%
same,IC50,murine leukaemia L1210,0.2 µM
"O=c1[nH]cc(F)c(=O)[nH]1 [5-fluoro-uracil, reference compound]",median T/C % (tumour volume on D21),colon 38; 80 mg/kg,0%
"COc1cc2c(c3c1c(=O)c1ccccc1n3C)[C@@H](OC(C)=O)[C@@H](OC(C)=O)C(C)(C)O2 (relative stereo) [Example 1, (±)-cis-1,2-diacetoxy-1,2-dihydro-acronycine]",Minimum median T/C % (day),"[4]; 6.25 mg/kg, D0,7, i.p., minimum at D32",46%
same,activity against HT-29 (in words),"[4]; i.p., weekly for 2 weeks",active against that very resistant tumour
same,activity against colon 38 compared with 5-fluoro-uracil (in words),colon 38; 25 mg/kg versus 5-fluoro-uracil at 80 mg/kg,as active at 25 mg/kg as 5-fluoro-uracil
same,median T/C % (tumour volume on D21),colon 38; 6.25 mg/kg,12%
same,median T/C % (tumour volume on D21),colon 38; 12.5 mg/kg,8%
same,median T/C % (tumour volume on D21),colon 38; 25 mg/kg,1%
same,activity against colon 38 (in words),colon 38; i.p.,very active
same,T/C % (survival),"P388 (murine leukaemia); D1, i.p., optimum dose 25 mg/kg",289%
same,T/C % (survival),"P388 (murine leukaemia); D1, i.v., optimum dose 25 mg/kg",220%
same,T/C % (survival),"P388 (murine leukaemia); D1-4, i.p., optimum dose 12.5 mg/kg",172%
same,activity against P388 (in words),P388 (murine leukaemia); i.p. and i.v. routes,extremely active
same,IC50,murine leukaemia L1210,4.9 µM
same,Δ weight (D10-D0),[5],-1.1 g
"COc1cc2c(c3c1c(=O)c1ccccc1n3C)[C@@H](O)[C@@H](OC(=O)c1ccccc1)C(C)(C)O2 (relative stereo) [Example 5, (±)-cis-2-benzoyloxy-1-hydroxy-1,2-dihydro-acronycine]",T/C % (survival),"P388 (murine leukaemia); D1, i.p., optimum dose 12.5 mg/kg",258%
same,IC50,murine leukaemia L1210,7.1 µM
"COc1cc2c(c3c1c(=O)c1ccccc1n3C)[C@H](OC(=O)c1ccccc1)[C@@H](OC(=O)c1ccccc1)C(C)(C)O2 (relative stereo) [Example 3, (±)-trans-1,2-dibenzoyloxy-1,2-dihydro-acronycine]",IC50,murine leukaemia L1210,3.4 µM
"COc1cc2c(c3c1c(=O)c1ccccc1n3C)[C@@H](OC(C)=O)[C@@H](OC(=O)c1ccccc1)C(C)(C)O2 (relative stereo) [Example 6, (±)-cis-1-acetoxy-2-benzoyloxy-1,2-dihydro-acronycine]",IC50,murine leukaemia L1210,5 µM
